Some test systems named below: A549 NSCLC; EKVX NSCLC; HOP-62 NSCLC; MDA-MB-231 breast; NCI-H522 lung; NCI/ADR-RES ovarian; SF-295 CNS; SK-MEL-5 melanoma; SNB-75 CNS; TK-10 renal.
Common to all, as to experiment: NCI-60 cell line screen, 48 h

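Results reflect a 48-hour exposure of cells in 96-well plates to compound at five concentrations. At the TGI there is no net growth.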

With `OC[C@H](O)[C@@H](OCc1ccccc1)[C@H](NCc1ccccc1)c1cccs1`, the TGI with A549 NSCLC, in the assay with EKVX NSCLC, in the assay with HOP-62 NSCLC, with MDA-MB-231 breast, in the assay on NCI-H522 lung and in the assay on NCI/ADR-RES ovarian was > 100 µM throughout. Further, the TGI in the assay on SF-295 CNS, in the assay with SK-MEL-5 melanoma, in the assay with SNB-75 CNS and in the assay on TK-10 renal was > 100 µM each time.
On to `CCOP(=O)(OCC)C(Cc1cn(S(=O)(=O)c2ccc(C)cc2)cn1)C(=O)O` (configuration not stated), for which the TGI in the assay on A549 NSCLC, with EKVX NSCLC, in the assay on HOP-62 NSCLC, with MDA-MB-231 breast, in the assay on NCI-H522 lung and in the assay on NCI/ADR-RES ovarian was > 100 µM each time. The TGI with SF-295 CNS, with SK-MEL-5 melanoma, in the assay on SNB-75 CNS and in the assay with TK-10 renal was > 100 µM throughout.
For `CCCCCCCCC/C=C1/CC(CO)(COC(=O)C2CCCCC2)OC1=O` (configuration not stated), the TGI with A549 NSCLC, in the assay on EKVX NSCLC, in the assay with HOP-62 NSCLC, in the assay with MDA-MB-231 breast, with NCI-H522 lung and in the assay with NCI/ADR-RES ovarian was > 100 µM throughout. The TGI in the assay with SF-295 CNS, with SK-MEL-5 melanoma, with SNB-75 CNS and with TK-10 renal was > 100 µM each time.
Take `O=C(O)C(=Cc1ccc(-c2ccc([N+](=O)[O-])cc2)o1)C(=O)O`: the TGI with A549 NSCLC, in the assay with EKVX NSCLC, with HOP-62 NSCLC, with MDA-MB-231 breast, with NCI-H522 lung and in the assay on NCI/ADR-RES ovarian was > 100 µM in each case. The TGI in the assay on SF-295 CNS, with SK-MEL-5 melanoma, in the assay on SNB-75 CNS and in the assay with TK-10 renal was > 100 µM in each case.
Turning to `C[C@]12CC[C@@H]3c4cc(C=O)c(OCc5ccccc5)cc4CC[C@H]3[C@@H]1CCC2OCc1ccccc1` (some centres not stated), the TGI in the assay on A549 NSCLC, in the assay on EKVX NSCLC, with HOP-62 NSCLC, in the assay with MDA-MB-231 breast, in the assay on NCI-H522 lung and in the assay on NCI/ADR-RES ovarian was > 100 µM in each case. For the same molecule, the TGI in the assay on SF-295 CNS, in the assay with SK-MEL-5 melanoma, in the assay with SNB-75 CNS and in the assay with TK-10 renal was > 100 µM each time.
With `COc1ccccc1-c1nc[nH]c1-c1ccccc1OC`, the TGI in the assay on A549 NSCLC was > 100 µM; in the assay on EKVX NSCLC, > 100 µM; in the assay with HOP-62 NSCLC it was > 100 µM; in the assay on MDA-MB-231 breast, > 100 µM; in the assay with NCI-H522 lung it was 42.1 µM; with NCI/ADR-RES ovarian it was 61.8 µM. Further, the TGI in the assay on SF-295 CNS was 97.9 µM; in the assay with SNB-75 CNS it was 60.7 µM; in the assay with TK-10 renal it was > 100 µM.
As to `Cc1ccnc2[nH]c(-c3ccc(Cl)cc3)cc(=O)c12`, the TGI was > 100 µM in the assay with A549 NSCLC; > 100 µM in the assay with EKVX NSCLC; > 93.5 µM in the assay with HOP-62 NSCLC; > 100 µM in the assay with MDA-MB-231 breast; > 100 µM in the assay with NCI-H522 lung; > 100 µM in the assay on NCI/ADR-RES ovarian. Also, the TGI in the assay with SF-295 CNS was > 100 µM; in the assay with SK-MEL-5 melanoma, > 100 µM; with SNB-75 CNS, 25.8 µM; in the assay with TK-10 renal, > 100 µM.
On to `CN1C(=O)c2c(c3c4ccccc4n(C)c3c3c2c2ccccc2n3C)C1=O`, for which the TGI in the assay with A549 NSCLC, with EKVX NSCLC, with HOP-62 NSCLC, in the assay with MDA-MB-231 breast, in the assay with NCI-H522 lung and in the assay on NCI/ADR-RES ovarian was > 100 µM each time. The TGI in the assay on SF-295 CNS, with SK-MEL-5 melanoma, in the assay with SNB-75 CNS and in the assay with TK-10 renal was > 100 µM each time.
For the molecule `Cn1c(=Nc2ccccc2[N+](=O)[O-])sc2ccccc21`, the TGI was > 100 µM in the assay on A549 NSCLC; > 100 µM in the assay with EKVX NSCLC; 48.3 µM in the assay with HOP-62 NSCLC; > 100 µM in the assay with MDA-MB-231 breast; > 100 µM with NCI-H522 lung; > 100 µM in the assay with NCI/ADR-RES ovarian. Further, the TGI in the assay on SF-295 CNS is > 100 µM; in the assay with SK-MEL-5 melanoma it was > 100 µM; in the assay with SNB-75 CNS, 89 µM; in the assay with TK-10 renal, 45.2 µM.
With `O=C(NC12CC3CC(CC(C3)C1)C2)n1cnc2c(Cl)ncnc21`, the TGI in the assay on A549 NSCLC was > 100 µM; in the assay with EKVX NSCLC it was 71.8 µM; in the assay with HOP-62 NSCLC, > 100 µM; in the assay with MDA-MB-231 breast it was > 100 µM; in the assay with NCI-H522 lung it was 97.5 µM; with NCI/ADR-RES ovarian, > 100 µM. In addition, the TGI was > 100 µM in the assay on SF-295 CNS, 53.5 µM in the assay with SK-MEL-5 melanoma, 73.8 µM with SNB-75 CNS and > 100 µM in the assay on TK-10 renal.
For the molecule `Cc1ccc2c(=O)cc(-c3ccccc3)[nH]c2n1`, the TGI with A549 NSCLC is > 100 µM; with EKVX NSCLC, > 100 µM; with HOP-62 NSCLC, > 100 µM; in the assay with MDA-MB-231 breast, 22.8 µM; in the assay on NCI-H522 lung, 2.94 µM; in the assay on NCI/ADR-RES ovarian, 0.31 µM. Also, the results for the TGI in the assay with SK-MEL-5 melanoma, with SNB-75 CNS and in the assay on TK-10 renal were 18.7 µM, > 100 µM and > 9.36 µM, respectively.
Regarding `Cc1cccc(N=Nc2ccc(O)c(CN(C)C)c2)c1`, the TGI is > 100 µM with A549 NSCLC; 58.1 µM in the assay with EKVX NSCLC; 28.9 µM in the assay with HOP-62 NSCLC; > 100 µM in the assay with MDA-MB-231 breast; 24.1 µM in the assay on NCI-H522 lung; 72.6 µM in the assay on NCI/ADR-RES ovarian. In addition, the TGI with SF-295 CNS is 86.5 µM; with SK-MEL-5 melanoma, 27.5 µM; with SNB-75 CNS, 94.5 µM; in the assay with TK-10 renal, 72.4 µM.
Regarding `COC(=O)C1=C(C(=O)OC)SC2(S1)C(C(=O)OC)=C(C(=O)OC)Sc1c2ssc1=O`, the TGI in the assay with A549 NSCLC amounted to 31 µM; in the assay with EKVX NSCLC, 6.16 µM; with HOP-62 NSCLC it was 4.53 µM; in the assay with MDA-MB-231 breast, 3.55 µM; in the assay with NCI-H522 lung, 0.581 µM; with NCI/ADR-RES ovarian it was 2.82 µM. The TGI with SF-295 CNS was determined as 27.6 µM; in the assay on SK-MEL-5 melanoma it was 2.59 µM; in the assay with SNB-75 CNS, 11.4 µM; with TK-10 renal, 3.04 µM.
`COc1ccc2nc3c(nc2c1)C(C)(C)C=C3c1ccc(Br)cc1`: the TGI with A549 NSCLC, in the assay with EKVX NSCLC, with HOP-62 NSCLC, with MDA-MB-231 breast, in the assay on NCI-H522 lung and in the assay with NCI/ADR-RES ovarian was > 100 µM throughout. The TGI in the assay with SK-MEL-5 melanoma, in the assay on SNB-75 CNS and in the assay on TK-10 renal was > 100 µM each time.
